# From patent US20240099944A1, “Stable Skin Care Compositions Containing a Retinoid” (priority 2022, published 2024)
# Experiment: Yellow discoloration (b-value) by Color Test Method, accelerated stability 60° C. for two weeks
# Type: physicochemical
# Conditions: away from direct light, Example 2 with additional ingredient compared to Example 2
# Protocol: This test was performed under accelerated stability conditions of 60° C., away from direct light for two weeks and the samples were stored in containers that limited the free flow of oxygen. […] The b-value was determined by the Color Test Method, described hereafter.
# In Example 2, the DMDM hydantoin and iodopropynyl butylcarbamate preservative is replaced with a preservative system comprising hydroxyacetophenone and phenoxyethanol.
# To measure the color of the compositions of the present invention, approximately 8 mL of the product to be tested is transferred into a petri dish (35×10 mm disposable) using a syringe. The Petri dish is then placed on the black half of a standard opacity chart (Form N2A, Leneta Company of Manwah, NJ or the equivalent thereof, of which the top half is black and the bottom half is white). The color (L, a, and b values) of the product in the petri dish is then measured using an integrated sphere spectrophotometer with settings selected to exclude specular reflection. The value for “a” correlates to a value along the red-green (horizontal) axis, and the value for “b” correlates to a value along the blue-yellow (vertical) axis. […] A more positive or negative value represents a more intense color. […]
compound,measurement,value
O=S([O-])[O-].[Na+].[Na+] [sodium sulfite],b-value vs. Example 2 (Control),dramatically reduced the composition's b-value
